Experimental data taken from patent publication US9227956B2 (Pfizer Inc., priority 2013, dated 2016).

Experiments:
human PCSK9 [1] = experiment: Cell Free PCSK9 Assay (PCSK9-luciferase RNA translated in HeLa cell lysate); format: biochemical; conditions: 30° C. for 45 minutes, luciferase readout, top concentration 100 μM
human PCSK9 [2] = experiment: PCSK9 AlphaLISA assay, PCSK9 lowering in WT7 cells; conditions: WT7 cells (Huh7 stably over-expressing human PCSK9); secreted PCSK9 by AlphaLISA; overnight incubation (16-24 h); top concentration 20 μM; read-out: Cell Based PCSK9 IC50
PCSK9 [3] = experiment: PCSK9 lowering in sandwich culture human hepatocytes (SCHH); format: cell-based; conditions: maximum response versus vehicle; at 8 h at 30 μM
PCSK9 [4] = experiment: Global Proteomic Assay (SILAC), PCSK9 protein expression in conditioned media; format: cell-based, human; conditions: Huh7 cells
Protocol: At the end of the indicated time points, media was removed and protease/phosphatase inhibitors added prior to freezing at −80° C. Cell layers were rinsed with PBS before adding cell dissociation buffer to detach the cells, cells were collected by rinsing with PBS and spun at 1000 rpm for 5 minutes. The cell pellet was resuspended in PBS for washing, spun at 1000 rpm for 5 minutes and the supernatant aspirated. The cell layer was then frozen at −80° C. and both the media and cell pellet were subjected to proteomic analysis.
(§1) For proteomic analysis of secreted proteins, equal volume of the conditioned media from light, medium, and heavy cells was mixed, followed by depletion of bovine serum albumin by anti-BSA agarose beads. The resulting proteins were subsequently concentrated using 3 KDa MWCO spin columns, reduced with dithiothreitol and alkylated with iodoacetamide.
The proteins derived from conditioned media and cell pellets were subsequently fractionated by SDS-PAGE. […]
(§2) The peptide mixtures were reconstituted in 0.1% formic acid. […] Peptide identification and relative protein quantification were carried out by searching the mass spectra against the human IPI database using Mascot search engine on Proteome Discoverer 1.3. […] Changes in protein expression upon compound treatment were calculated from the relative intensity of isotope-labeled and unlabeled peptides derived from that protein.

Huh7 cells = experiment: Global Proteomic Assay (SILAC), non-PCSK9 proteins with decreased expression; format: cell-based, human
Protocol: Cell layers were rinsed with PBS before adding cell dissociation buffer to detach the cells, cells were collected by rinsing with PBS and spun at 1000 rpm for 5 minutes. The cell pellet was resuspended in PBS for washing, spun at 1000 rpm for 5 minutes and the supernatant aspirated. The cell layer was then frozen at −80° C. and both the media and cell pellet were subjected to proteomic analysis.
as §1
For the analysis of cellular proteins, cell pellets were lysed in SDS-PAGE loading buffer in the presence of protease/phosphatase inhibitor cocktails. Cell lysates were centrifuged at 12000×g at 4° C. for 10 min. The resulting supernatants were collected, and protein concentrations were measured by BCA assay. Equal amount proteins in the light, medium, and heavy cell lysates were combined, reduced with dithiothreitol and alkylated with iodoacetamide.
The proteins derived from conditioned media and cell pellets were subsequently fractionated by SDS-PAGE. The gels were stained with Coomassie blue. After destaining, the gels were cut into 12-15 bands. Proteins were in-gel digested by trypsin overnight, after which peptides were extracted from the gels with CH3CN:1% formic acid (1:1, v/v). The resulting peptide mixtures were desalted with C18 Stage-Tips, dried in speedvac and stored at −20° C. until further analysis.
as §2

SMILES	IC50 (human PCSK9 [1])	IC50 (human PCSK9 [2])	Sandwich Culture Hepatocyte (SCHH) PCSK9 Lowering (PCSK9 [3])	PCSK9 in conditioned media relative to vehicle (PCSK9 [4]; 10 μM, 4 and 16 h post-treatment)	additional proteins in conditioned media with significant decrease in expression (Huh7 cells; 10 μM, 4 and 16 h, two proteins (Apolipoprotein A2, Cadherin 1) of approx. 1500)	decrease of PCSK9 protein expression in the conditioned media (PCSK9 [4]; 16 hours of treatment, 0.3 μM)	cellular proteins significantly decreased (Huh7 cells; 2 proteins (Apolipoprotein C3, Cadherin 1) of greater than 3000 cellular proteins)	additional proteins with significant reduction in expression (media and cells) (Huh7 cells; 4 of 4083 proteins)
CCOC(=O)O[C@H](C)OC(=O)c1c(-c2ccc(C(=O)N(c3ncccc3Cl)[C@@H]3CCCNC3)cc2)cnn1C [Example 15b, (1R)-1-[(ethoxycarbonyl)oxy]ethyl 4-(4-{(3-chloropyridin-2-yl)[(3R)-piperidin-3-yl]carbamoyl}phenyl)-1-methyl-1H-pyrazole-5-carboxylate]	5 µM	10.7 µM	58% at 8 h at 30 μM	significantly reduced	approx. 0.13%	–	–	–
O=C(c1ccc(-n2nnc3cccnc32)cc1)N(c1ncccc1Cl)[C@@H]1CCCNC1 [Example 16, N-(3-chloropyridin-2-yl)-N-[(3R)-piperidin-3-yl]-4-(3H-[1,2,3]triazolo[4,5-b]pyridin-3-yl)benzamide]	0.52 µM	–	87% at 8 h at 30 μM	–	–	2 fold	0.067%	0.098%
